In brackets after ≈: the same amount, converted by molar mass.
How the values were obtained:
[1] = tested on: L 1210 leukemia cells; assay: Proliferation assay: incorporation of C-14-thymidine in L 1210 cells; format: cell-based; conditions: Mus musculus, read-out: Proliferation assay IC50
Description: The determination of the cytotoxic activity of the compounds described in the present patent is carried out on L 1210 leukemia cells of the mouse. Specifically, the following test systems were used:
In this in vitro method, after incubation of the cells with varying concentrations of the test substance a determination is carried out of the extent to which the cells can incorporate radioactively labelled DNA-precursors (for example C-14-labelled thymidine).
L 1210 Cells in the exponential growth phase (5×10^3 /ml in RPMI 1640) are incubated for 72 hours, in a microtitration plate, with different concentrations of the test substance (37° C., 5% CO2, 95% relative atmospheric humidity). Controls consist of cells which are incubated solely with fresh medium. All assays are carried out in quadruplicate. After 65 hours, 50 μl of C-14-thymidine (1.5 μc/ml) are added in order to radioactively label the DNA of the cell. After 7 hours' incubation, the cells are filtered off with suction, and the DNA is precipitated with 5% strength dichloroacetic acid and successively washed with water and methanol. After drying at 50° C., the radioactivity built into the DNA is determined after adding 5 ml of scintillation fluid.
The results are quoted as a ratio of the scintillation indices obtained after incubation with the test substance and obtained with the untreated control. From the measurements thus obtained, the dose/effect curve is determined and the IC50, i.e. the concentration which under test conditions reduces the incorporation of radioactive thymidine by 50% relative to the control, is determined graphically.

[2] = tested on: L 1210 leukemia cells; assay: Colony formation of L 1210 leukemia cells in soft agar (stem cell assay); format: cell-based; conditions: Mus musculus
Description: In this test, cytostatically active substances produce a reduction of the number of colonies observed relative to an untreated control. Specifically, the test is carried out as follows:
500 Leukemia cells per plate are incubated with different concentrations of test substance for 1 hour at 37° C. The cells are then washed twice with McCoy 5a medium and finally, after addition of 0.3% of agar, poured out into Petri dishes. Controls are incubated with fresh medium only. In place of the 1-hour incubation, different concentrations of the test substance are in some cases mixed into the upper agar layer so as to achieve continuous exposure of the cells over the entire incubation period. After the agar has solidified, the plates are incubated in an incubating chamber for 7 days at 37° C. (5% CO2, 95% relative atmospheric humidity). Thereafter, the number of colonies formed which have a diameter of 60μ is counted. The results are quoted as the number of colonies in the treated agar plates expressed as a percentage of those in the untreated control. From the dose/effect curve thus obtained, the IC50 is determined and serves as a measure of the effectiveness of the substance.

[3] = Determination of acute toxicity, intraperitoneal; conditions: mouse, in vivo, ip, NMRI mice, day 14, Litchfield Wilcoxon
Description: To determine the acute toxicity, NMRI mice were injected intraperitoneally,on day 0, with different doses of the test substance suspended in 0.5 ml of 0.5% strength carboxymethylcellulose. Control groups were given solely 0.5 ml of carboxymethylcellulose solution. 5 Mice were employed per concentration of test substance. On day 14, the number of surviving mice is determined and the LD50 found therefrom by the Litchfield Wilcoxon method.

[4] = L1210, L 1210 cells, 72 hours, C-14-thymidine incorporation
[5] = L1210, 168 h, L 1210 colony formation in soft agar, continuous exposure, 7 days, read-out: Stem cell assay IC50, Incubation: Continuous
[6] = L1210, L 1210 colony formation in soft agar, 1 hour incubation, 7 days, read-out: Stem cell assay IC50, Incubation: 1 hour

Row | IC50 [1, 4] | SMILES | IC50 ([1]; L1210, 72 h) | IC50 ([2]; L1210, 168 h, read-out: Stem cell assay IC50, Incubation: Continuous) | IC50 ([2]; L1210, read-out: Stem cell assay IC50, Incubation: 1 hour) | LD50 at 336 h [3] | IC50 [2, 5] | IC50 [2, 6]
1 |  | COc1cccc2c1C(=O)c1c(O)c3c(c(O)c1C2=O)C[C@@](O)(C(=O)CO)C[C@@H]3O[C@H]1C[C@H](N)[C@H](O)[C@H](C)O1 [Adriamycin, reference compound] | 0.006 µg/mL (≈ 0.011 µM) | 0.02 µg/mL (≈ 0.0368 µM) | 0.044 µg/mL (≈ 0.081 µM) | 14 mg/kg |  | 
2 | 0.028 µg/mL (≈ 0.0945 µM) | O=C1c2ccccc2C(=O)c2c(OCC3CO3)ccc(O)c21 (centres unmarked) [Example 3, 1-Hydroxy-anthraquinone-4-(oxy-2,3-oxido-propane)] |  |  |  |  | 0.03 µg/mL (≈ 0.101 µM) | 0.066 µg/mL (≈ 0.223 µM)
3 | 0.0022 µg/mL (≈ 0.00624 µM) | O=C1c2ccccc2C(=O)c2c(OCC3CO3)ccc(OCC3CO3)c21 (centres unmarked) [Example 4, Anthraquinone-1,4-bis-(oxy-2,3-oxido-propane)] |  |  |  |  | 0.0033 µg/mL (≈ 0.00937 µM) | 0.004 µg/mL (≈ 0.0114 µM)
4 |  | O=C1c2ccc(OCC3CO3)cc2C(=O)c2ccc(OCC3CO3)cc21 (centres unmarked) [Example 5, Anthraquinone-2,6-bis(oxy-2,3-oxido-propane)] | 0.0044 µg/mL (≈ 0.0125 µM) |  |  | 200 mg/kg | 0.01 µg/mL (≈ 0.0284 µM) | 0.0083 µg/mL (≈ 0.0236 µM)

Row | SMILES | IC50 [1, 4] | IC50 ([1]; L1210, 72 h) | IC50 ([2]; L1210, 168 h, read-out: Stem cell assay IC50, Incubation: Continuous) | IC50 ([2]; L1210, read-out: Stem cell assay IC50, Incubation: 1 hour) | LD50 at 336 h [3] | IC50 [2, 5] | IC50 [2, 6]
5 | O=C1c2cccc(OCC3CO3)c2C(=O)c2c(OCC3CO3)cccc21 (centres unmarked) [Example 8, Anthraquinone-1,8-bis-(oxy-2,3-oxido-propane)] | 0.028 µg/mL (≈ 0.0795 µM) |  |  |  |  | 0.0085 µg/mL (≈ 0.0241 µM) | 0.03 µg/mL (≈ 0.0851 µM)
